Results reported in patent US20150250786A1, “PYRIMIDINE HYDROXY AMIDE COMPOUNDS AS PROTEIN DEACETYLASE INHIBITORS AND METHODS OF USE THEREOF” (THE TRUSTEES OF THE UNIVERSITY OF PENNSYLVANIA, priority 2012, published 2015).
Several values for one entry are separate records, joined by “and”; a condition that tells them apart may be missing. Equal values may be shown once. Read-outs that look alike come from different tables or passages of the source.

Experiments:
mice [1] = assay: Marble-burying task; type: in vivo, mouse; settings: acute administration
HDAC1 = HDAC1 (Homo sapiens, UniProt Q13547); assay: HDAC enzyme assay, HDAC1
HDAC2 = HDAC2 (Homo sapiens, UniProt Q92769); assay: HDAC enzyme assay, HDAC2
mice [2] = assay: Open-field test; type: in vivo, mouse
[3] = Body weight gain during chronic treatment; type: in vivo, mouse; settings: 4 weeks of treatment
[4] = system: α-tubulin acetylation in mouse whole brain lysates; assay: α-tubulin acetylation in whole brain lysates after single i.p. administration; type: in vivo; settings: compound 73 5 mg/kg, compound 101 50 mg/kg, tubastatin A 10 mg/kg, 30 min, 1 h, 4 h
[5] = Pharmacokinetics and brain bio-distribution in mice; type: in vivo, mouse; settings: mouse; for Kp: brain, calculated over 2 hours
Procedure: […] Plasma samples were taken from all mice upon sacrifice. Brain samples were taken from the mice sacrificed at 5 and 15 minutes and 1 and 4 hours. The brain samples were homogenized in PBS and centrifuged at 14000 rpm for 5 minutes. The supernatant from the brain homogenate and the plasma samples were injected onto a LC/MS/MS for analysis. The compound level in the samples was determined by a standard curve in the appropriate matrix. Pharmacokinetic parameters were determined from the raw data by WinNonLin.

mice [6] = assay: Elevated plus maze (EPM); type: in vivo, mouse; settings: acute administration
[7] = system: all other class II HDAC isoforms; assay: HDAC inhibition, other class II isoforms; settings: read-out: IC50 against all other class II HDAC isoforms
[8] = system: RN46A-B14 serotonergic cell line; assay: Histone H3K9 acetylation in RN46A-B14 cells (Western blot); type: cell-based, rat; settings: 2.5 μM, 4 hours
[9] = system: RN46A-B14 serotonergic cell line; assay: α-tubulin K40 acetylation in RN46A-B14 cells (Western blot); type: cell-based, rat; settings: 4 hours; TSA 0.6 μM, others 2.5 μM
Procedure: In FIG. 3, it was observed that subchronic treatment, consisting of 5 treatments at 48, 28, 24, 4 and ½ hours before sacrifice, led to greater increase in tubulin acetylation than did chronic treatment of 1 injection/day for 21 days. For cell culture, RN46B cells were treated for with 0.25, 2.5 or 25 μM drug in DMSO for 1, 4 or 24 hours as indicated. Tukey post-hoc analysis: * P=0.01 to 0.05, ** P=0.001-0.01, ***P<0.001 when compared with vehicle treatment.
(§1) Results are shown as percent change normalized to the vehicle treatment condition. The horizontal hard line depicts average and the dotted lines depict SEM of the vehicle treated wells. Representative Western blot images are presented. […] Representative Western blot images are presented. […] The drugs (5 mg/kg) were administered subchronically (at 24 h, 4 h and 30 min prior to sacrifice) to HDAC6 KO and WT littermates. The changes in tubulin acetylation were measured in tissue lysates from cortex (ctx), hippocampus (Hpc), dorsal Raphe nucleus (DRN) and cerebellum (cb). The tubulin acetylation levels in drug-treated mice are expressed as percent change of the vehicle-treated mice of the corresponding genotype. The horizontal lines depict the average tubulin acetylation±SEM in the vehicle treated mice. The representative Western blot images show the changes induced by each drug treatment in the hippocampus (left column) and dorsal raphe (right column) of WT and HDAC6 KO mice.
In contrast to the class I isoforms HDAC2 and 3, which are expressed highly and ubiquitously in the mouse brain, HDAC6 mRNA expression appears to be restricted to a small number of brain areas, with highest signal observed in DRN (FIG. 13f). […] No changes in total α-tubulin expression were detected (FIG. 14a).

[10] = system: α-tubulin K40 acetylation in cortex, hippocampus, DRN, cerebellum; assay: α-tubulin acetylation in brain regions after subchronic administration, WT and HDAC6 KO mice; type: in vivo, mouse
Procedure: as §1, with “The drugs (5 mg/kg) were administered subchronically (at 24 h, 4 h and 30 min prior to sacrifice) to HDAC6 KO and WT littermates.” left out

HDAC2, sequence (Q92769 whole entry): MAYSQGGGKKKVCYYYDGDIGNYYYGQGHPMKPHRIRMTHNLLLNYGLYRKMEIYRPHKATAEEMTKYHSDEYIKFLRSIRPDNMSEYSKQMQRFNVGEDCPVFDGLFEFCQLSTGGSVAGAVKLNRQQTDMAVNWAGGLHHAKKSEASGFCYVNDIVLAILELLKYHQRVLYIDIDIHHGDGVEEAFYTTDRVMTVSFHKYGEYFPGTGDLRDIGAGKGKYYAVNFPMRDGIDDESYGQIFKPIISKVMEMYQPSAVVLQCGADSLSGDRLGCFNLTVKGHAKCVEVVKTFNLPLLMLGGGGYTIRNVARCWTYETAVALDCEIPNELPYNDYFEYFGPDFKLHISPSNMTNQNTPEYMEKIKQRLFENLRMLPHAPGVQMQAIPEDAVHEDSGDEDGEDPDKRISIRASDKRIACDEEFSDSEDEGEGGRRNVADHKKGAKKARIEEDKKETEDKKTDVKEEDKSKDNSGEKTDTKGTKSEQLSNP
HDAC1, sequence (Q13547 whole entry): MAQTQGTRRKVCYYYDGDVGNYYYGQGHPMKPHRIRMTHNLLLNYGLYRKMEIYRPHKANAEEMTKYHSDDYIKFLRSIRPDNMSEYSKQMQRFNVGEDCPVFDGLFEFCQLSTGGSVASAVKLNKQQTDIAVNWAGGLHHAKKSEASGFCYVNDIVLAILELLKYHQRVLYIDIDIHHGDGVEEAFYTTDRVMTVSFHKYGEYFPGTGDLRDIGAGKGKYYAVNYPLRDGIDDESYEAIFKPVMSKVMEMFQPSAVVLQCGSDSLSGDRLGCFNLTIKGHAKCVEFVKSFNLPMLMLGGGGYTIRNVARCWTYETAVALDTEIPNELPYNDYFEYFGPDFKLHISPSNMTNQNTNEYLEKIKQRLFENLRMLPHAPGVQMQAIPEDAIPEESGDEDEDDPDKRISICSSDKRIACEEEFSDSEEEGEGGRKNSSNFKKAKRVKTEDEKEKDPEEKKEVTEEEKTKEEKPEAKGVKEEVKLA

Question: What does the source list for `O=C(NO)c1cnc(NC2(c3cccc(F)c3)CCCCC2)nc1` [Compound 101, 2-((1-(3-fluorophenyl)cyclohexyl)amino)-N-hydroxypyrimidine-5-carboxamide]?
Answer: number of marbles buried (mice [1]): significantly reduced; HDAC1 fold versus HDAC6 (in brackets) (HDAC1; Table 3): 283 x; HDAC1 fold versus HDAC6 (in brackets) (HDAC1; selectivity HDAC6 over HDAC1): (283.5x); HDAC2 fold versus HDAC6 (in brackets) (HDAC2): (343.2x); HDAC2 fold versus HDAC6 (in brackets) (HDAC2; Table 3): 342 x; exploratory activity in novel open-field arena (mice [2]; acute, compounds 73, 101 50 mg/kg, tubastatin A 10 mg/kg): hyperlocomotor effects; distance in the center of the open field (mice [2]; mouse, in vivo): 419±73 beam breaks; open-field exploration in neural cell selective HDAC6 KO mice (mice [2]; same doses (50 mg/kg)): did not significantly alter; body weight gain [3]: no significant effect; α-tubulin acetylation in whole brain lysates [4]: significant increases; Kp ([5]; C57BL/6J, intraperitoneal, read-out: AUCBrain/AUCplasma): 1.26; concentration at 30 min ([5]; C57BL/6J, plasma, intraperitoneal, 5 mg/kg, read-out: 30 min plasma concentration (ng/ml) - 5 mg/kg): 496 ng/mL; concentration at 30 min ([5]; C57BL/6J, plasma, intraperitoneal, 50 mg/kg, read-out: 30 min plasma concentration (ng/ml) - 50 mg/kg): 1360 ng/mL; Cmax ([5]; C57BL/6J, plasma, ip, 5 mg/kg, mice, acute i.p. dosing, read-out: Cmax): 915 ng/mL; half-life ([5]; C57BL/6J, plasma, ip, mice, acute i.p. dosing, read-out: T½ plasma (converted)): 30 min; Kp ([5]; intraperitoneal, read-out: AUCBrain/AUCplasma ratio): > 1; concentration at 30 min ([5]; plasma, intraperitoneal, acute 50 mg/kg injection, read-out: plasma level at t=30 minutes): 1360 ng/mL and 4.1 µM; concentration at 2 h ([5]; plasma, intraperitoneal, read-out: plasma concentration after two hours): < 10 ng/mL; half-life ([5]; plasma, intraperitoneal, read-out: plasmatic half-life): 12 min; behavioral changes / time in the open arms of the maze (mice [6]): neither compound 73 nor compound 101 produced behavioral changes; IC50 [7]: > 1000 nM; change in histone H3K9 acetylation [8]: no significant change; acetylated (lysine 40) fraction of α-tubulin [9]: increases; α-tubulin acetylation over baseline levels ([10]; HDAC6 KO mice, identical treatment regimens): did not produce increases; α-tubulin acetylation in cortex, hippocampus, DRN, cerebellum ([10]; wild-type mice, 24 h, 4 h, 30 m before sacrifice, compound 73 5 mg/kg, compound 101 50 mg/kg): significant increases
